Reference: patent US8883799B2, “Tricyclic PI3K inhibitor compounds and methods of use” (Genentech, Inc., priority 2010, dated 2014)
pEC50, pIC50: −log10 of the molar value.

Columns and labels:
MDA-MB-361.1 = test: In vitro cell proliferation assay (CellTiter-Glo), MDA-MB-361.1; assay type: cell-based; settings: Cell line: MDA-MB-361.1; Tissue type: breast; Mutation Status: PI3K; read-out: EC50 (μmole)
Protocol: (§1) Efficacy of Formula I compounds was measured by a cell proliferation assay employing the following protocol (Promega Corp. Technical Bulletin TB288; Mendoza et al (2002) Cancer Res. 62:5485-5488):
(§2) 1. An aliquot of 100 μl of cell culture containing about 10^4 cells (PC3, Detroit562, or MDAMB361.1) in medium was deposited in each well of a 384-well, opaque-walled plate.
(§3) 2. Control wells were prepared containing medium and without cells.
(§4) 3. The compound was added to the experimental wells and incubated for 3-5 days.
(§5) 4. The plates were equilibrated to room temperature for approximately 30 minutes.
(§6) 5. A volume of CellTiter-Glo® Reagent equal to the volume of cell culture medium present in each well was added.
(§7) 6. The contents were mixed for 2 minutes on an orbital shaker to induce cell lysis.
(§8) 7. The plate was incubated at room temperature for 10 minutes to stabilize the luminescence signal.
(§9) 8. Luminescence was recorded and reported in graphs as RLU=relative luminescence units.
(§10) Alternatively, cells were seeded at optimal density in a 96 well plate and incubated for 4 days in the presence of test compound. Alamar Blue™ was subsequently added to the assay medium, and cells were incubated for 6 hr before reading at 544 nm excitation, 590 nm emission. EC50 values were calculated using a sigmoidal dose response curve fit. The term EC50 refers to the half maximal effective concentration and is the concentration at which a drug induces a response halfway between the baseline and maximum after some specified exposure time. It is commonly used as a measure of drug potency.
(§11) The anti-proliferative effects of Formula I exemplary compounds were measured by the CellTiter-Glo® Assay against various tumor cell lines, including the following: […]

PC3 = test: In vitro cell proliferation assay (CellTiter-Glo), PC3; assay type: cell-based; settings: Homo sapiens, PC-3; Cell line: PC3; Tissue type: prostate; Mutation Status: PTEN; read-out: EC50 (μmole)
Protocol: as §1, §2, §3, §4, §5, §6, §7, §8, §9, §10, §11

p110 alpha PI3K = target: T1, p110 alpha PI3K (Homo sapiens, UniProt P42336); test: p110α (alpha) PI3K binding assay (fluorescence polarization; alternatively radiometric); settings: read-out: IC50, Ki (μmole) PI3K, p110 alpha binding assay
T1 construct: purchased Upstate Cell Signaling Solutions, Charlottesville, Va
Protocol: Binding Assays: Initial polarization experiments were performed on an Analyst HT® 96-384 (Molecular Devices Corp, Sunnyvale, Calif.). […] After an incubation time of 30 minutes at room temperature, the reactions were stopped by the addition of GRP-1 and PIP3-TAMRA probe (Echelon-Inc., Salt Lake City, Utah) 100 nM and 5 nM final concentrations respectively. Read with standard cut-off filters for the rhodamine fluorophore (λex=530 nm; λem=590 nm) in 384-well black low volume Proxiplates® (PerkinElmer, Wellesley, Mass.) Fluorescence polarization values were plotted as a function of the protein concentration, and the EC50 values were obtained by fitting the data to a 4-parameter equation using KaleidaGraph® software (Synergy software, Reading, Pa.). This experiment also establishes the appropriate protein concentration to use in subsequent competition experiments with inhibitors.
After an incubation time of 30 minutes at room temperature, the reactions were stopped by the addition of GRP-1 and PIP3-TAMRA probe (Echelon-Inc., Salt Lake City, Utah) 100 nM and 5 nM final concentrations respectively. Read with standard cut-off filters for the rhodamine fluorophore (λex=530 nm; λem=590 nm) in 384-well black low volume PROXIPLATES® (PerkinElmer, Wellesley, Mass.) Fluorescence polarization values were plotted as a function of the antagonist concentration, and the IC50 values were obtained by fitting the data to a 4-parameter equation in Assay Explorer® software (MDL, San Ramon, Calif.).
The Formula I compound was serially diluted in 100% DMSO. The kinase reaction was incubated for 1 hr at room temperature, and the reaction was terminated by the addition of PBS. IC50 values were subsequently determined using sigmoidal dose-response curve fit (variable slope).

T1 sequence (P42336 whole entry): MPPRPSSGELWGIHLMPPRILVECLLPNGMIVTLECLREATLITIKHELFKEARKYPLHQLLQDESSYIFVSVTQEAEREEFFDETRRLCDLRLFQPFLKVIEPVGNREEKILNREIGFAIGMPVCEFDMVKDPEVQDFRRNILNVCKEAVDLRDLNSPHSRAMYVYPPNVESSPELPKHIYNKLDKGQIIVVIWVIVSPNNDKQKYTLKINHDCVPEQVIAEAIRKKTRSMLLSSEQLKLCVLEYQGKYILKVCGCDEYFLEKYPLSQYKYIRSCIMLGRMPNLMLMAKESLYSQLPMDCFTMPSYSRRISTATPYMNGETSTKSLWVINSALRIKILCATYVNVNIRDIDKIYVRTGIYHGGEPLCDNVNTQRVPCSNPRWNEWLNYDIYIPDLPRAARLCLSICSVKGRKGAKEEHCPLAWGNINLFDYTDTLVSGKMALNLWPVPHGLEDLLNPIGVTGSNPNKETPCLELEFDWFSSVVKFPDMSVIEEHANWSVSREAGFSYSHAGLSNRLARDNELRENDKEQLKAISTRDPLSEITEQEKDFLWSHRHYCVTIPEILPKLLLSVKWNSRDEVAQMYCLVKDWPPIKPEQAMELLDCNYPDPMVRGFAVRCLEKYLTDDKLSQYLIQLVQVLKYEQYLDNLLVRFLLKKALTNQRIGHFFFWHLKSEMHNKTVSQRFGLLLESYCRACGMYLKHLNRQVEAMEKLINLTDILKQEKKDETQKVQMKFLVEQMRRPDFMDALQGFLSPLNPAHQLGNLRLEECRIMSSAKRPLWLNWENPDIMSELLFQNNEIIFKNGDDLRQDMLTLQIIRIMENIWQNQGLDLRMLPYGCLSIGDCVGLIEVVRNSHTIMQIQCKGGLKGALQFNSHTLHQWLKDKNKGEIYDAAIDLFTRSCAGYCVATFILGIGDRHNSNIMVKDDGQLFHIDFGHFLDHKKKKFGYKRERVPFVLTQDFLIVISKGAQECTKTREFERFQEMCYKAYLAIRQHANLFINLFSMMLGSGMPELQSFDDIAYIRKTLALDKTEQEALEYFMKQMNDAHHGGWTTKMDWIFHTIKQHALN
T1 sequence (P27986 whole entry partner): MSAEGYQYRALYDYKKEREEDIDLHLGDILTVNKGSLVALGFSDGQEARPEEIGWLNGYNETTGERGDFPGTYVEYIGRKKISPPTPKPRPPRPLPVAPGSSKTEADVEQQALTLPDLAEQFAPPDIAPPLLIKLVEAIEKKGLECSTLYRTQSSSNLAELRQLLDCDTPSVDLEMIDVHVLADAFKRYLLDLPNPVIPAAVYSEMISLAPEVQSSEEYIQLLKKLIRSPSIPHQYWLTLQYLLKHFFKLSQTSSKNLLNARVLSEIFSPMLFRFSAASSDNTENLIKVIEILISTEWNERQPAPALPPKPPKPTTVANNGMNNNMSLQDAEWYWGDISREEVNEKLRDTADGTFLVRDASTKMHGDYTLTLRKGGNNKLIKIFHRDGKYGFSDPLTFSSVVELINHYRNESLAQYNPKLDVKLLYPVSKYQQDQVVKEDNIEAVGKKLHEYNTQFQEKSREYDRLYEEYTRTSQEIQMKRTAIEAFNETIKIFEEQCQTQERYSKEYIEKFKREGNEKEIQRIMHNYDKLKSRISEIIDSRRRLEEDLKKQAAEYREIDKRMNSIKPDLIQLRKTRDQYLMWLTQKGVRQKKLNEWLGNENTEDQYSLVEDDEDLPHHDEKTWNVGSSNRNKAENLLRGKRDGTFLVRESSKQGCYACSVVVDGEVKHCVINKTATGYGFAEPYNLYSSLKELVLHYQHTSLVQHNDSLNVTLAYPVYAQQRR

| Compound | pEC50 (MDA-MB-361.1) | pEC50 (PC3) | pIC50 (p110 alpha PI3K) |
| --- | --- | --- | --- |
| CC1(C)OCCn2c1nc1c(N3CCOCC3)nc(-c3ccc(N)cn3)nc12 [Compound 138, 6-(6,6-dimethyl-4-morpholino-8,9-dihydro-6H-[1,4]oxazino[3,4-e]purin-2-yl)pyridine-3-amine] | < 5.00 | < 5.00 | < 6.16 |
| CC(C)Cn1cc(-c2nc(N3CCOCC3)c3nc4n(c3n2)CCOC4(C)C)cn1 [Compound 148, 2-(1-isobutyl-1H-pyrazol-4-yl)-6,6-dimethyl-4-morpholino-8,9-dihydro-6H-[1,4]oxazino[3,4-e]purine] | < 5.00 | < 5.00 | < 6.16 |
